From PubChem BioAssay AID1963873 (Molecular Pharmacology Branch, DTP, NCI, 2024)

Test system: 276233-004-R-J1-PDC KRAS spheroids with HUVEC/MSC, viability
Assay: Anticancer human tumor 276233-004-R-J1-PDC patient-derived colon adenocarcinoma cell line growth inhibition [KRAS2]
Settings: for IC50: curve of first compound; for viability, T/C: stronger effect = lower value
How it was run: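 KRAS-mutant tumor cells were grown as spheroids with HUVEC endothelial cells and human MSCs as stroma. Targeted agents were tested alone and with KRAS pathway inhibitors. Doses started at or near clinical Cmax, or 10 microM, descending half-log.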

[1] = second compound 0.1 µM, first compound 0.0316 µM
[2] = second compound 0.1 µM, first compound 0.1 µM
[3] = second compound 0.1 µM, first compound 0.316 µM
[4] = second compound 0.1 µM, first compound 1 µM
[5] = second compound 0.1 µM, first compound 3.16 µM
[6] = second compound 0.1 µM, first compound 10 µM
[7] = second compound 0.316 µM, first compound 0.0316 µM
[8] = second compound 0.316 µM, first compound 0.1 µM
[9] = second compound 0.316 µM, first compound 0.316 µM
[10] = second compound 0.316 µM, first compound 1 µM
[11] = second compound 0.316 µM, first compound 3.16 µM
[12] = second compound 0.316 µM, first compound 10 µM
[13] = second compound 1 µM, first compound 0.0316 µM
[14] = second compound 1 µM, first compound 0.1 µM
[15] = second compound 1 µM, first compound 0.316 µM
[16] = second compound 1 µM, first compound 1 µM
[17] = second compound 1 µM, first compound 3.16 µM
[18] = second compound 1 µM, first compound 10 µM
[19] = second compound 3.16 µM, first compound 0.0316 µM
[20] = second compound 3.16 µM, first compound 0.1 µM
[21] = second compound 3.16 µM, first compound 0.316 µM
[22] = second compound 3.16 µM, first compound 1 µM
[23] = second compound 3.16 µM, first compound 3.16 µM
[24] = second compound 3.16 µM, first compound 10 µM
[25] = second compound 10 µM, first compound 0.0316 µM
[26] = second compound 10 µM, first compound 0.1 µM
[27] = second compound 10 µM, first compound 0.316 µM
[28] = second compound 10 µM, first compound 1 µM
[29] = second compound 10 µM, first compound 3.16 µM
[30] = second compound 10 µM, first compound 10 µM
[31] = second compound 0.1 µM, first compound 0.000316 µM
[32] = second compound 0.1 µM, first compound 0.001 µM
[33] = second compound 0.1 µM, first compound 0.00316 µM
[34] = second compound 0.1 µM, first compound 0.01 µM
[35] = second compound 0.316 µM, first compound 0.000316 µM
[36] = second compound 0.316 µM, first compound 0.001 µM
[37] = second compound 0.316 µM, first compound 0.00316 µM
[38] = second compound 0.316 µM, first compound 0.01 µM
[39] = second compound 1 µM, first compound 0.000316 µM
[40] = second compound 1 µM, first compound 0.001 µM
[41] = second compound 1 µM, first compound 0.00316 µM
[42] = second compound 1 µM, first compound 0.01 µM
[43] = second compound 3.16 µM, first compound 0.000316 µM
[44] = second compound 3.16 µM, first compound 0.001 µM
[45] = second compound 3.16 µM, first compound 0.00316 µM
[46] = second compound 3.16 µM, first compound 0.01 µM
[47] = second compound 10 µM, first compound 0.000316 µM
[48] = second compound 10 µM, first compound 0.001 µM
[49] = second compound 10 µM, first compound 0.00316 µM
[50] = second compound 10 µM, first compound 0.01 µM
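Also: cells exposed to agents for seven days before viability read.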
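For viability, T/C in this document: 100% = DMSO vehicle control wells and lower values mean fewer viable cells.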

## O=C(c1cc(Cc2n[nH]c(=O)c3ccccc23)ccc1F)N1CCN(C(=O)C2CC2)CC1 + CC1OCC2(CCN(c3cnc(Sc4ccnc(N)c4Cl)c(N)n3)CC2)C1N
Second compound 0.1 µM
  IC50: > 10000 nM
Second compound 0.316 µM
  IC50: > 10000 nM
Second compound 1 µM
  IC50: > 10000 nM
Second compound 3.16 µM
  IC50: 233 nM
Second compound 10 µM
  IC50: 70.7 nM
[1]
  viability, T/C: 75.3%
[2]
  viability, T/C: 84.9%
[3]
  viability, T/C: 85.4%
[4]
  viability, T/C: 81.8%
[5]
  viability, T/C: 79.4%
[6]
  viability, T/C: 62.5%
[7]
  viability, T/C: 76.6%
[8]
  viability, T/C: 78.5%
[9]
  viability, T/C: 65.7%
[10]
  viability, T/C: 71.7%
[11]
  viability, T/C: 64.9%
[12]
  viability, T/C: 65%
[13]
  viability, T/C: 95.6%
[14]
  viability, T/C: 67.9%
[15]
  viability, T/C: 59.4%
[16]
  viability, T/C: 54.2%
[17]
  viability, T/C: 51%
[18]
  viability, T/C: 52.9%
[19]
  viability, T/C: 54.4%
[20]
  viability, T/C: 52.8%
[21]
  viability, T/C: 45.1%
[22]
  viability, T/C: 50.6%
[23]
  viability, T/C: 44.4%
[24]
  viability, T/C: 43.3%
[25]
  viability, T/C: 55.9%
[26]
  viability, T/C: 47.1%
[27]
  viability, T/C: 41.4%
[28]
  viability, T/C: 42.7%
[29]
  viability, T/C: 37.5%
[30]
  viability, T/C: 36.6%

## Cn1nccc1Nc1nccc(-c2cc3c(s2)C(C)(C)N(CCN2CCOCC2)C3=O)n1
Compound 0.1 µM
  viability, T/C: 96.5% [middle of 5 runs]
Compound 0.316 µM
  viability, T/C: 86.1% [middle of 5 runs]
Compound 1 µM
  viability, T/C: 79.7% [middle of 5 runs]
Compound 3.16 µM
  viability, T/C: 54.2% [middle of 5 runs]
Compound 10 µM
  viability, T/C: 49.9% [middle of 5 runs]

## CC(C)n1nc(-c2ccc3oc(N)nc3c2)c2c(N)ncnc21 + COc1cc2nc(C)nc(NC(C)c3cc(N)cc(C(F)(F)F)c3)c2cc1OC1CCOC1
Second compound 0.1 µM
  IC50: > 100 nM
Second compound 0.316 µM
  IC50: > 100 nM
Second compound 1 µM
  IC50: 42.6 nM
Second compound 3.16 µM
  IC50: > 100 nM
Second compound 10 µM
  IC50: < 0.316 nM
[31]
  viability, T/C: 90.1%
[32]
  viability, T/C: 120%
[33]
  viability, T/C: 76.7%
[34]
  viability, T/C: 68%
[1]
  viability, T/C: 64.7%
[2]
  viability, T/C: 50.8%
[35]
  viability, T/C: 109%
[36]
  viability, T/C: 86.3%
[37]
  viability, T/C: 71.6%
[38]
  viability, T/C: 70.9%
[7]
  viability, T/C: 68%
[8]
  viability, T/C: 56.5%
[39]
  viability, T/C: 108%
[40]
  viability, T/C: 92.5%
[41]
  viability, T/C: 86.5%
[42]
  viability, T/C: 56.8%
[13]
  viability, T/C: 54.5%
[14]
  viability, T/C: 46%
[43]
  viability, T/C: 76.7%
[44]
  viability, T/C: 83.4%
[45]
  viability, T/C: 76.4%
[46]
  viability, T/C: 61.9%
[19]
  viability, T/C: 63.2%
[20]
  viability, T/C: 50.3%
[47]
  viability, T/C: 18.3%
[48]
  viability, T/C: 22.9%
[49]
  viability, T/C: 19.1%
[50]
  viability, T/C: 32.5%
[25]
  viability, T/C: 32.2%
[26]
  viability, T/C: 29.3%

## CC(C)n1nc(-c2ccc3oc(N)nc3c2)c2c(N)ncnc21 + CC1OCC2(CCN(c3cnc(Sc4ccnc(N)c4Cl)c(N)n3)CC2)C1N
Second compound 0.1 µM
  IC50: 67.8 nM
Second compound 0.316 µM
  IC50: > 100 nM
Second compound 1 µM
  IC50: 48.9 nM
Second compound 3.16 µM
  IC50: 12.1 nM
Second compound 10 µM
  IC50: 7.82 nM
[31]
  viability, T/C: 87.9%
[32]
  viability, T/C: 104%
[33]
  viability, T/C: 71.9%
[34]
  viability, T/C: 69.7%
[1]
  viability, T/C: 54.1%
[2]
  viability, T/C: 47.1%
[35]
  viability, T/C: 90.9%
[36]
  viability, T/C: 81.7%
[37]
  viability, T/C: 67.5%
[38]
  viability, T/C: 68.9%
[7]
  viability, T/C: 53.8%
[8]
  viability, T/C: 57.5%
[39]
  viability, T/C: 80.9%
[40]
  viability, T/C: 68.1%
[41]
  viability, T/C: 77%
[42]
  viability, T/C: 59.1%
[13]
  viability, T/C: 52.5%
[14]
  viability, T/C: 44.7%
[43]
  viability, T/C: 73.7%
[44]
  viability, T/C: 74.5%
[45]
  viability, T/C: 51.6%
[46]
  viability, T/C: 57.7%
[19]
  viability, T/C: 40.3%
[20]
  viability, T/C: 32.5%
[47]
  viability, T/C: 70.6%
[48]
  viability, T/C: 66.8%
[49]
  viability, T/C: 64.4%
[50]
  viability, T/C: 45.9%
[25]
  viability, T/C: 43.4%
[26]
  viability, T/C: 40.1%

## CC1OCC2(CCN(c3cnc(Sc4ccnc(N)c4Cl)c(N)n3)CC2)C1N (stereo not given) + CNCc1ccccc1-c1csc(C(C)Nc2nc(C)nc3cc(OC)c(OC)cc23)c1
Second compound 0.1 µM
  IC50: > 10000 nM
Second compound 0.316 µM
  IC50: > 10000 nM
Second compound 1 µM
  IC50: 392 nM
Second compound 3.16 µM
  IC50: < 31.6 nM
Second compound 10 µM
  IC50: < 31.6 nM
[1]
  viability, T/C: 73.8%
[2]
  viability, T/C: 101%
[3]
  viability, T/C: 66.1%
[4]
  viability, T/C: 82%
[5]
  viability, T/C: 73.3%
[6]
  viability, T/C: 59%
[7]
  viability, T/C: 92.8%
[8]
  viability, T/C: 90.2%
[9]
  viability, T/C: 68.6%
[10]
  viability, T/C: 60.9%
[11]
  viability, T/C: 66%
[12]
  viability, T/C: 46.5%
[13]
  viability, T/C: 88.9%
[14]
  viability, T/C: 84.1%
[15]
  viability, T/C: 50.8%
[16]
  viability, T/C: 50%
[17]
  viability, T/C: 50.3%
[18]
  viability, T/C: 34.5%
[19]
  viability, T/C: 0.87%
[20]
  viability, T/C: 0.85%
[21]
  viability, T/C: 1.57%
[22]
  viability, T/C: 2.11%
[23]
  viability, T/C: 0.56%
[24]
  viability, T/C: 3.18%
[25]
  viability, T/C: 1.45%
[26]
  viability, T/C: 3.57%
[27]
  viability, T/C: 0.22%
[28]
  viability, T/C: 0.25%
[29]
  viability, T/C: 0.32%
[30]
  viability, T/C: 5.87%
